Our source for the GI50 and TGI values is PubChem BioAssay (NCI).

SMILES strings stand for the structures.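 Growth conditions: 96-well plates. Treatment: test compound, 48 hours, 5 concentrations. Analysis: linear interpolation between bracketing concentrations; unreached endpoints set to highest concentration. GI50 = concentration required for 50% inhibition of growth. TGI: total growth inhibition.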

Test systems include MDA-MB-435; CAKI-1 renal; OVCAR-5 ovarian; RXF 393 renal; SK-MEL-5 melanoma; CCRF-CEM leukemia; OVCAR-4 ovarian; ACHN renal; HS 578T breast; COLO 205 colon.
What all share (test): inhibition of tumour cell growth, NCI panel, 48 h

Take `O=c1c2ccccc2c(=O)c2c1sc1c(=O)c3ccc(O)cc3c(=O)c12`: the GI50 in the assay on MDA-MB-435 was 0.173 µM; in the assay on CAKI-1 renal it was 1.29 µM; with OVCAR-5 ovarian, 1.74 µM; in the assay on RXF 393 renal it was 1.63 µM; in the assay with SK-MEL-5 melanoma it was 0.127 µM; with CCRF-CEM leukemia, 2.59 µM. The GI50 was 0.88 µM with OVCAR-4 ovarian, 0.864 µM in the assay on ACHN renal and 0.33 µM with HS 578T breast. In addition, the TGI in the assay with MDA-MB-435 was determined as 0.326 µM; in the assay with CAKI-1 renal, 3.26 µM; in the assay with OVCAR-5 ovarian, 3.65 µM; in the assay with RXF 393 renal, 4.3 µM; with SK-MEL-5 melanoma it was 0.256 µM; in the assay on CCRF-CEM leukemia it was 10.3 µM. Moreover, the TGI came out at 2.1 µM in the assay with OVCAR-4 ovarian, 2.38 µM with ACHN renal and 0.973 µM with HS 578T breast.
For `CCCCCCCCCCCCCCCCCCNC(=O)[C@H]1CSC(c2ccc(F)c(OC)c2)N1` (some centres not stated), the GI50 in the assay with MDA-MB-435 was 0.518 µM; with CAKI-1 renal, 0.846 µM; in the assay on OVCAR-5 ovarian, 1 µM; in the assay on RXF 393 renal, 0.894 µM; in the assay on SK-MEL-5 melanoma, 0.812 µM; with CCRF-CEM leukemia, 0.284 µM. The GI50 was 1.38 µM in the assay with OVCAR-4 ovarian, 2.71 µM in the assay on ACHN renal and 1.24 µM in the assay on HS 578T breast. Besides, the TGI was 1.2 µM in the assay with MDA-MB-435; 1.58 µM in the assay on CAKI-1 renal; 1.91 µM in the assay on OVCAR-5 ovarian; 1.6 µM with RXF 393 renal; 1.52 µM in the assay with SK-MEL-5 melanoma; 1.74 µM in the assay on CCRF-CEM leukemia. In addition, the TGI with OVCAR-4 ovarian was 3.62 µM; in the assay with ACHN renal it was greater than 50 µM; in the assay with HS 578T breast it was 2.97 µM.
In the case of `CC(=O)c1c(Nc2ccc(F)c(F)c2F)[nH]c2c(F)cc(F)cc2c1=O`, the GI50 was 0.365 µM in the assay on MDA-MB-435; 0.218 µM in the assay on CAKI-1 renal; 0.552 µM in the assay with OVCAR-5 ovarian; 0.3 µM in the assay on RXF 393 renal; 0.188 µM in the assay on SK-MEL-5 melanoma; 0.368 µM with CCRF-CEM leukemia. Besides, the GI50 with OVCAR-4 ovarian is 0.32 µM; in the assay with ACHN renal, 0.296 µM; in the assay with HS 578T breast it was 0.293 µM. The TGI in the assay with MDA-MB-435 was 7.26 µM; in the assay with CAKI-1 renal, 1.61 µM; with OVCAR-5 ovarian it was 25.4 µM; in the assay on RXF 393 renal, 2.41 µM; in the assay with SK-MEL-5 melanoma, 0.431 µM; in the assay with CCRF-CEM leukemia, greater than 100 µM. Also, the TGI is greater than 100 µM with OVCAR-4 ovarian, greater than 26.3 µM with ACHN renal and 8.69 µM in the assay with HS 578T breast.
Turning to `COc1cc(/C=C2\C(=O)Nc3ccc(Br)cc32)cc(OC)c1OC`, the GI50 was 2.02 µM with MDA-MB-435; 1.85 µM with CAKI-1 renal; 30.6 µM in the assay on OVCAR-5 ovarian; 8.18 µM in the assay on COLO 205 colon; 6.33 µM in the assay on SK-MEL-5 melanoma; 4.82 µM with CCRF-CEM leukemia. Besides, the GI50 is greater than 29 µM in the assay on OVCAR-4 ovarian, 31.9 µM in the assay on ACHN renal and 2.94 µM in the assay on HS 578T breast. The TGI was 7.19 µM in the assay with MDA-MB-435; greater than 44.1 µM in the assay on CAKI-1 renal; greater than 100 µM in the assay on OVCAR-5 ovarian; greater than 100 µM in the assay on COLO 205 colon; greater than 100 µM with SK-MEL-5 melanoma; greater than 100 µM in the assay with CCRF-CEM leukemia. Besides, the TGI in the assay on OVCAR-4 ovarian is greater than 100 µM; with ACHN renal, greater than 100 µM; in the assay with HS 578T breast, greater than 78.7 µM.
Regarding `CNc1ccc(N=Nc2cccc3ncccc23)cc1`, the GI50 in the assay on MDA-MB-435 was 19.7 µM; in the assay with CAKI-1 renal it was 6 µM; in the assay on OVCAR-5 ovarian, 0.0278 µM; with RXF 393 renal, 28.7 µM; with COLO 205 colon, 2.48 µM; with SK-MEL-5 melanoma it was 23 µM. Also, the results for the GI50 in the assay with CCRF-CEM leukemia, in the assay on ACHN renal and in the assay with HS 578T breast were greater than 24 µM, 20.8 µM and 24.7 µM, respectively. For the same compound, the TGI in the assay on MDA-MB-435, with CAKI-1 renal, in the assay on OVCAR-5 ovarian, in the assay on RXF 393 renal, in the assay on COLO 205 colon and with SK-MEL-5 melanoma was greater than 100 µM each time. The TGI in the assay with CCRF-CEM leukemia, in the assay with ACHN renal and in the assay on HS 578T breast was greater than 100 µM each time.
For `O=C(O)C(O)c1ccc(F)cc1` (configuration not stated), the TGI in the assay on MDA-MB-435, in the assay on CAKI-1 renal, in the assay with OVCAR-5 ovarian, in the assay with RXF 393 renal, with OVCAR-4 ovarian and in the assay on ACHN renal was greater than 100 µM in each case. Further, in the assay with HS 578T breast, the TGI is greater than 100 µM.
Turning to `Cc1nc2cc(Nc3nc(Nc4ccc(F)cc4)nc(-c4ccc(Cl)cc4)n3)ccc2n1Cc1ccccc1`, the GI50 with MDA-MB-435 is 3.6 µM; in the assay with OVCAR-5 ovarian, 5.76 µM; with RXF 393 renal it was 4.21 µM; in the assay with COLO 205 colon, 3.17 µM; in the assay on SK-MEL-5 melanoma, 3.47 µM; in the assay with CCRF-CEM leukemia it was 3.35 µM. Further, the GI50 was 2.86 µM with OVCAR-4 ovarian, 3.89 µM in the assay on ACHN renal and 12.2 µM with HS 578T breast. Further, the TGI is greater than 100 µM in the assay with MDA-MB-435; greater than 100 µM in the assay with OVCAR-5 ovarian; 38.5 µM with RXF 393 renal; 59.8 µM with COLO 205 colon; greater than 100 µM with SK-MEL-5 melanoma; greater than 100 µM with CCRF-CEM leukemia. Further, the TGI in the assay with OVCAR-4 ovarian was 17.6 µM; in the assay on ACHN renal, greater than 100 µM; in the assay with HS 578T breast, greater than 100 µM.
Consider `N#CC1=C(N)Oc2c(sc3c(Br)cccc23)C1c1ccc(F)cc1` (configuration not stated), for which the GI50 in the assay on MDA-MB-435 was 0.0691 µM; in the assay with CAKI-1 renal, 0.437 µM; in the assay with OVCAR-5 ovarian it was 1.77 µM; in the assay with COLO 205 colon, 0.366 µM; with SK-MEL-5 melanoma it was 0.371 µM; in the assay on CCRF-CEM leukemia, 0.381 µM. Further, the GI50 in the assay with OVCAR-4 ovarian was 0.65 µM; in the assay on ACHN renal, 0.682 µM; in the assay on HS 578T breast, 0.851 µM. The TGI with MDA-MB-435 was found to be 11.2 µM; with CAKI-1 renal, 31.9 µM; with OVCAR-5 ovarian, 19.6 µM; in the assay with COLO 205 colon it was 1.69 µM; in the assay on SK-MEL-5 melanoma, 12.9 µM; in the assay with CCRF-CEM leukemia it was 13 µM. For the same compound, the TGI amounted to 23.4 µM in the assay with OVCAR-4 ovarian, 17 µM in the assay with ACHN renal and 52.7 µM in the assay on HS 578T breast.
Consider `O=C1Nc2ccc(Br)cc2C1=Nc1ccc(Cl)cc1`, for which the TGI is 20.6 µM in the assay with MDA-MB-435; greater than 100 µM with CAKI-1 renal; 39.8 µM in the assay on OVCAR-5 ovarian; 40.1 µM in the assay on RXF 393 renal; 4.71 µM in the assay with COLO 205 colon; 20.1 µM in the assay with SK-MEL-5 melanoma. Moreover, the TGI in the assay with CCRF-CEM leukemia was 51.9 µM; in the assay with ACHN renal it was 39.1 µM; in the assay on HS 578T breast, greater than 100 µM.
